From patent publication US8663690B2, “Method for nanoencapsulation” (William Marsh Rice University, priority 2006, dated 2014)

Experiment: UV-vis spectroscopy estimate of lutein-ester dissolved in ethanol
Assay type: physicochemical
Details: ethanol at 60° C., estimated from UV-vis spectroscopy; rest undissolved particles
Protocol: A suspension of lutein-ester (Blue California, Co.) was prepared by dissolving lutein-ester powder in ethanol at 60° C. under stirring. It is estimated from UV-vis spectroscopy that 20.0 wt % lutein-ester dissolves in ethanol at 60° C., and the rest are in the form of undissolved nanoparticles, mesoparticles, and microparticles. A solution of gum arabic (Sigma) was prepared by dissolving gum arabic in deionized water (18.2 Mega-Ohm·cm) at 60° C. under stirring until the gum arabic was completely dissolved and a clear solution was obtained.

For lutein-ester, the “fraction of lutein-ester that dissolves in ethanol” value was 20.0 wt %.
